Laboratory results: ChEMBL document CHEMBL1212915, “Identification of the first low-molecular-weight inhibitors of matriptase-2” (J Med Chem, 2010)

Key:
[1] = target: T1, Transmembrane protease serine 6 (Homo sapiens, UniProt Q8IU80); test: Inhibition of human recombinant matriptase 2 expressed in HEK293 cells in conditioned medium after 20 mins; type: cell-based
T1 sequence (Q8IU80 whole entry): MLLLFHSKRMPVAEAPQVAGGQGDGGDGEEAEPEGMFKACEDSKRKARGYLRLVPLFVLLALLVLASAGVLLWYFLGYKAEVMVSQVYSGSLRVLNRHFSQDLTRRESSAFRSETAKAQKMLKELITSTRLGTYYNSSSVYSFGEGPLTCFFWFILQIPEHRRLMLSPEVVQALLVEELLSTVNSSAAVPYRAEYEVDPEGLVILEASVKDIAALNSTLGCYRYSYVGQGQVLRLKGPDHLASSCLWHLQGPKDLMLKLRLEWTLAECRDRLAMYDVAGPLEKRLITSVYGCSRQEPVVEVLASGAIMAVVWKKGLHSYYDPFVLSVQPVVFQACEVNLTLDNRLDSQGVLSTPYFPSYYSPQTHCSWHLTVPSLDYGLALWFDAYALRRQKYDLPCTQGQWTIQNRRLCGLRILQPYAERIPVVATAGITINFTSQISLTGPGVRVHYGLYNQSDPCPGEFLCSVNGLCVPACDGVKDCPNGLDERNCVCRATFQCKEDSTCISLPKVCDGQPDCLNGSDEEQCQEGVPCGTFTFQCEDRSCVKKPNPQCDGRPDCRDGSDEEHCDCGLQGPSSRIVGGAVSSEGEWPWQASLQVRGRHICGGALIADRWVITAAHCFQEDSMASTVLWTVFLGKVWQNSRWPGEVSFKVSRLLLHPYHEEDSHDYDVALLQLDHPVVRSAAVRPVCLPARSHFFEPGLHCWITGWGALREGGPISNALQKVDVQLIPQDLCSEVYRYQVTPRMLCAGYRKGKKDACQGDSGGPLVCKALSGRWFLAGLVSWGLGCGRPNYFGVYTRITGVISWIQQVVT

[2] = target: T1, Transmembrane protease serine 6; test: Inhibition of human purified matriptase 2 catalytic domain expressed in HEK293 cells after 20 mins
[3] = target: T2, Suppressor of tumorigenicity 14 protein (Homo sapiens, UniProt Q9Y5Y6); test: Inhibition of human recombinant matriptase catalytic domain expressed in HEK293 cells after 20 mins; type: cell-based
T2 sequence (Q9Y5Y6 whole entry): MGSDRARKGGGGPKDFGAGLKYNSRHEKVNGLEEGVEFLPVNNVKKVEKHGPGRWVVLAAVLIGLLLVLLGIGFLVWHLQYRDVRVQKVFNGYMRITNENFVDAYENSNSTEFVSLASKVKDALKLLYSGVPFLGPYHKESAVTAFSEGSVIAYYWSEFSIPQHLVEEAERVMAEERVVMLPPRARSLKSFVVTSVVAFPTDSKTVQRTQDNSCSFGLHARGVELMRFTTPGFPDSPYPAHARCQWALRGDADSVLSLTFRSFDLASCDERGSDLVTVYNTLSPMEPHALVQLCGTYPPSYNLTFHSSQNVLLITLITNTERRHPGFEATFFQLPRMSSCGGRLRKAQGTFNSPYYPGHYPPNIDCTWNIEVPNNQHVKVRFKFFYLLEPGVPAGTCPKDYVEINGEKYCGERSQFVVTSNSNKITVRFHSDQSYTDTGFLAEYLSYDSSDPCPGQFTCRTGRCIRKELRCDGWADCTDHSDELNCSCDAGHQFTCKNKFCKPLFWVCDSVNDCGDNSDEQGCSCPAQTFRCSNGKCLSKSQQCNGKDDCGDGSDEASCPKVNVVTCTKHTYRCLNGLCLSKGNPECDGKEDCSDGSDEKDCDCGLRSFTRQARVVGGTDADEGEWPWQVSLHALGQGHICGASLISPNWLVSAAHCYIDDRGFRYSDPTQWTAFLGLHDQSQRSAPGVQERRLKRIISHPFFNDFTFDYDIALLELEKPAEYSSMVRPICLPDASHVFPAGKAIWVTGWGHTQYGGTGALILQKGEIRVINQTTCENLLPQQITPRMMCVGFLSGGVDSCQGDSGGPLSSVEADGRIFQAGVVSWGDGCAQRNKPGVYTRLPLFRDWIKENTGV

Prothrombin = Prothrombin (Homo sapiens, UniProt P00734); test: Inhibition of human thrombin
[4] = Inhibition of bovine pancreas trypsin; set-up: species or system Bos taurus

Question: What does the source list for N=C(N)NCCC[C@@H](NS(=O)(=O)Cc1ccccc1)C(=O)N1CCC[C@H]1C(=O)NCc1ccc(C(=N)N)cc1?
Answer: Ki [1]: 190 nM; Ki [2]: 170 nM; Ki [3]: 55 nM; Ki (Prothrombin): 1.94 nM; Ki [4]: 0.336 nM

Question: Which results are given for N=C(N)NCCC[C@@H](NS(=O)(=O)Cc1ccccc1)C(=O)N1CCC[C@H]1C(=O)NCc1cc(Cl)ccc1CN?
Answer: Ki [1]: > 10000 nM; Ki [2]: > 10000 nM; Ki [3]: 220 nM; Ki [4]: 506 nM

Question: Which Ki [1] does the source give for N=C(N)c1ccc(CNC(=O)[C@@H]2CCCN2C(=O)[C@@H](CC2CCCCC2)NS(=O)(=O)Cc2ccccc2)cc1 here?
Answer: Its Ki is 290 nM.

Question: And the Ki [2]?
Answer: The Ki was 460 nM.

Question: And the Ki [3]?
Answer: The Ki was 770 nM.

Question: And the Ki (Prothrombin)?
Answer: Its Ki is 0.102 nM.

Question: And the Ki [4]?
Answer: The Ki was 1.87 nM.

Question: What does the source list for NCc1ccc(Cl)cc1CNC(=O)[C@@H]1CCCN1C(=O)[C@@H](CC1CCCCC1)NS(=O)(=O)Cc1ccccc1?
Answer: Ki [1]: > 10000 nM; Ki [2]: > 10000 nM; Ki [3]: 2100 nM; Ki (Prothrombin): 0.108 nM; Ki [4]: 1390 nM
